Read-outs that look alike come from different tables or passages of the source. Bounds are passed on as bounds.

One series concerns Lactobacillus brevis. The series can be described thus: Efficiency against Lactobacillus brevis, EN 1276. The class given is cell-based. The method, then: (§1) Testing was done according to test protocols EN 1276 and EN 1650. Formulation B and Formulation D (a peracetic acid-based formulation) were tested separately and in combination. Formulation B was also tested in combination with hydrogen peroxide. Tests were run at 20°, 40° C. and 60° C. in the presence of 1% ferment soil at contact times of 10, 20 and 30 minutes. Kill rates are expressed as log reductions.

The next series has as its system Saccharomyces cerevisiae. The series can be described thus: Yeast growth test (Example 6). It counts as cell-based. The conditions noted are these: supplement at concentrations above 10 ppm; 30° C.; compared to control without supplements. The method, then: These experiments were used to investigate whether potential residues of cleaning formulations described herein have any impact on the growth or metabolism of a fermentative yeast cell. Saccharomyces cerevisiae was selected as a typical member of fermenting yeasts. Malt extract agar tubes with an angular surface were used to grow starter cultures. Two globules that were covered with Saccaromyces cerevisiae (from a freeze culture collection DSM 1333) were streaked onto an agar surface and incubated at 30° C. for 3 days. Yeast colonies were grown, transferred to liquid growth media and incubated for 15-20 hours at 30° C. A second transfer was conducted into fresh liquid medium. The grown medium was transferred into closed, sterile tubes and centrifuged for 20 minutes at 8000 G. The liquid was decanted and the pellets collected in 10 mL of sterile Ringer solution. A Thoma Hemocytometer was prepared. Cells of 4 squares across were counted. Counted numbers from 4 squares were averaged and cell concentrations were calculated. The concentration of cells in the original mixture=number of cells counted*10^6=cells/mL. Dilutions were made to reach final cell concentration of 1×10^6/mL in culture medium. […] Start extinction was measured at 578 nm with help of a spectrophotometer. […] Every 1 to 2 hours samples were taken and extinctions were measured. […] The difference ∂ of extinction to start was calculated. […]

How the values of series [1] were obtained: Formulation B was combined with three sanitizing additives hydrogen peroxide (i.e., “peroxide”), peracetic acid (PAA) and chlorine dioxide. Testing was conducted at 80° C. to simulate CIP tank conditions. Ferment soil was added to the tests to further simulate real conditions.
Another series concerns fermentative wild yeasts. Description: Efficiency against fermentative wild yeasts. The conditions noted are these: all temperatures, 20 minutes or longer. It counts as cell-based. As for the experimental part:
as §1
At 20° C. and 40° C., 0.28% peroxide […] was ineffective on Lactobacilli. The higher kill rate at 60° C. is mainly due to temperature.

For `OO` [hydrogen peroxide], the “effectiveness” value is recorded as “ineffective” in the series on Lactobacillus brevis (0.28% (1000 ppm), at 20° C. and 40° C.); “became effective” in the series on Lactobacillus brevis (1.4% (5000 ppm), at 40° C. and 20 minute contact times).

With `[Na+].[OH-]` [Caustic Soda, sodium hydroxide], the “S. cerevisiae cell growth” value with Saccharomyces cerevisiae is given as “significantly decreased or even inhibited”.

In the case of `CC(=O)OO` [Peracetic acid, peracetic acid], in series [1] (in Formulation B and ferment soil, versus high alkaline solutions), the stability entry was “better stability”. Moreover, in series [1] (in the presence of Formulation B, 80° C., ferment soil), the half life was more than 30 min. In addition, the “effectiveness” value was “very effective” with Lactobacillus brevis (0.3% (450 ppm), all temperatures, 20 minutes or longer); “very effective” in the series on fermentative wild yeasts (0.15% (225 ppm PAA)); “very effective” in the series on fermentative wild yeasts (0.3% (450 ppm)).

On to `[O][Cl+][O-]` [Chlorine dioxide, chlorine dioxide], for which, in series [1] (10 ppm, 80° C., ferment soil), the stability entry is on record as “very unstable”.

The values are drawn from patent US9476017B2, “Compositions and methods for cleaning, disinfecting, and sanitizing that are effluent neutral” (Diversey, Inc, priority 2012, dated 2016).
